Melting point data for 90 compounds are collected here from a melting point compilation (Tetko et al.; mined from patent text by program, amines drawn as free bases though some values may be those of a salt).

With `CCOCc1nc2c(N)nc3cc(OCc4ccccc4OC)ccc3c2n1CC(C)C`, the melting point lay in the range of 206 to 207 °C.

In the case of `OC1CSC(Oc2cccnc2-c2ccncc2)C(O)C1O` (stereo not given), the melting point worked out at 129 °C.

`CCOP(=O)(OCC)c1cc2cc(S(N)(=O)=O)c(Cl)cc2[nH]c1=O` registered a melting point of 288 to 290 °C.

On to `CCOC(=O)COc1c2ccccc2cc2c1c(C(=O)C(N)=O)c(CC)n2Cc1ccccc1`, for which the melting point fell in the range of 130 to 131 °C.

Consider `Cc1cc(C)cc(CN(C)C(=O)C(Cc2c[nH]c3ccccc23)NC(=O)c2ccccc2)c1` (stereo not given), for which the melting point lay in the range of 140 to 142 °C.

Consider `Fc1cc(CC2(Cc3ccnc(F)c3)c3ccccc3Oc3ncccc32)ccn1`, for which the melting point was 185 to 189 °C.

Compound `CCN(CC)c1cc(C)c2ncc(C#N)c(O)c2c1` displayed a melting point of over 250 °C.

`COc1ccc(C=C[N+](=O)[O-])cc1OC1CCCC1`: the melting point lay in the range of 133 to 134 °C.

In the case of `CC[C@H](NC(=O)c1cc(F)ccc1NS(=O)(=O)c1cccc2cccnc12)c1ccccc1`, the melting point was determined as 163 °C.

Consider `O=C(O)c1oc2ccc(Cl)cc2c1-c1ccccc1`, for which the melting point was in the range of 247 to 248 °C.

As for `Cc1nnc2n1-c1sc(CC(=O)N3CCOCC3)cc1C(c1ccccc1Cl)=NC2`, the melting point lay in the range of 143 to 144 °C.

Turning to `CCCCCCCCCc1cc(C(=O)O)n[nH]1`, the melting point lay in the range of 147 to 149 °C.

Turning to `CCCCC1NC(C(=O)OC)Cc2c1[nH]c1ccccc21` (stereo not given), the melting point lay within 102 to 103 °C.

Consider `FC(F)(F)c1nc[nH]n1`, for which the melting point stood at 89 °C.

With `CC1(C)CC(C)(C)CC2(CCCC(=O)N2)C1`, the melting point lay in the range of 126 to 128 °C.

`OC(CNc1ccnc2ccccc12)c1ccccc1` (stereo not given) gave a melting point of 289 to 290 °C.

For `COc1ccc2ccc(C(O)C(F)(F)F)cc2c1` (stereo not given), the melting point is 85 to 87 °C.

Regarding `CCn1c(=O)c(Oc2ccc(F)cc2F)cc2cnc(S(C)(=O)=O)nc21`, the melting point lay in the range of 128 to 129 °C.

Consider `Cc1[nH]c(=S)[nH]c1-c1cc(C(C)(C)C)c(O)c(C(C)(C)C)c1`, for which the melting point fell in the range of 288 to 290 °C.

Take `CC#CCOc1ccc(S(=O)(=O)N2CCOCC2C(=O)O)cc1` (stereo not given): the melting point was in the range of 40 to 42 °C.

The compound `O=C(O)c1cc(Cl)c(O)c(O)c1Cl` displayed a melting point of 230 to 231 °C.

Regarding `COC12CC(C)(C)C(OC(C)=O)C(C=C1C)O2` (stereo not given), the melting point was 54 to 55 °C.

Turning to `COc1ccc(CC2N(C)CCC(O)(c3ccccc3)C2(C)C)cc1` (stereo not given), the melting point lay in the range of 122 to 124 °C.

`COC(=O)/C(=C/CC[C@H](NC(=O)OCc1ccccc1)C(=O)N[C@H](C)C(=O)OC)NC(=O)OC(C)(C)C` displayed a melting point of 120 to 121 °C.

Consider `COc1ccc(-c2nc(C)c(C(=O)O)s2)cc1`, for which the melting point is 129 to 131 °C.

The compound `O=C(O)CCc1cn(Cc2ccc(OCc3csc(-c4ccccn4)n3)cc2)cc1-c1ccccc1` displayed a melting point of 117 to 118 °C.

Take `COc1cc(C#N)ccc1C`: the melting point was 51 to 52.5 °C.

Turning to `O=C(O)c1cn([C@@H]2C[C@@H]2F)c2c(F)c(N3C[C@@H]4CCCN[C@@H]4C3)c(F)cc2c1=O`, the melting point was in the range of 271 to 273 °C.

`COC(=O)[C@H](C)N(C(=O)[C@H](CC(C)C)NC(=O)OC(C)(C)C)c1ccc(Cl)c(Cl)c1`: the melting point fell in the range of 117 to 119 °C.

In turn, `CC(C)OC(=O)N1CCC(NC(=O)N2CCn3c(c(C(N)=O)c(Cl)c3-c3ccccc3)C2)CC1` came in with a melting point of 166 to 167 °C.

In turn, `CCOC(=O)Cc1nc(C)n2c1CN=C(c1ccccc1Cl)c1cc(Cl)ccc1-2` yielded a melting point of 143 to 154 °C.

`CC(C)c1ccc(-c2cnc(-c3cccc(C(=O)O)c3)o2)cc1` yielded a melting point of 150 to 153 °C.

The compound `COc1ccc(N2CCOCC2)cc1NC(=S)c1nc2ccccc2[nH]1` returned a melting point of 236 to 237 °C.

As for `CC(=O)Oc1cc(C(C)=O)c(O)cc1NS(C)(=O)=O`, the melting point fell in the range of 205 to 206 °C.

Take `CC(C)c1cccc(CCC(O)CC2CCCCC2)c1NC(=O)CC1c2ccccc2Oc2ccccc21` (stereo not given): the melting point came to 148 °C.

Compound `COc1ccc(-c2cc3ccc(OC)cc3s2)cc1` came in with a melting point of 193 to 194 °C.

`CCCC(C(=O)OCC)N1CC(COc2cccc(Cl)c2)OC1=O` (stereo not given) registered a melting point of 43 to 49 °C.

In turn, `C[C@@H]1C(=O)C[C@H]2C[C@@H]1OO[C@@]2(C)/C=C\c1ccccc1` registered a melting point of 60 °C.

Compound `CC(=O)CCC(=O)c1ccc(Cl)cc1` registered a melting point of 165 to 167 °C.

`COc1ccc(C(=O)c2ccc(O)cc2)c(OC(C)(C)C(=O)OC(C)(C)C)c1` registered a melting point of 172 to 173 °C.

Take `CCCCc1oc2ccccc2c1C(=O)N(Cc1ccccc1)Cc1ccc2c(Br)c(OCC#N)ccc2c1`: the melting point lay in the range of 105 to 110 °C.

`COc1cc2ncnc(N3CCN(C(=S)Nc4ccccn4)CC3)c2cc1OC`: the melting point fell in the range of 208 to 210 °C.

`COc1cc2nc(N)nc(-c3ccc(C)c(Br)c3Br)c2cc1OC` yielded a melting point of 233 to 236 °C.

In the case of `COc1ccc(CCNC(=O)CCCCC(=O)NC2Cc3ccccc3C2)cc1OC`, the melting point lay in the range of 162 to 164 °C.

For the compound `N#Cc1ccccc1OCCCCCCCC(=O)O`, the melting point is 83 to 85 °C.

Regarding `CC(C)(C)OC(=O)N1C(=O)O[C@@H](c2ccncc2)[C@H]1Cc1ccc(C(F)(F)F)cc1` (racemic), the melting point lay in the range of 166 to 168 °C.

Regarding `CCC(C)(C)Nc1cccnc1N(C)C1CCN(C(=O)c2cc3cc([N+](=O)[O-])ccc3[nH]2)CC1`, the melting point is 206 to 208 °C.

Regarding `CC(C)Nc1cccnc1N1CCN(C(=O)c2ccc(C(=O)NCCc3cccs3)cn2)CC1`, the melting point lay in the range of 131 to 134 °C.

In turn, `CCn1c(CNc2ccncc2)nc2c(C#N)nc(-c3cccc(C(F)(F)F)c3)cc21` had a melting point of 340 °C.

Compound `OC(c1cccnn1)c1ccc(Cl)cc1Cl` (stereo not given) came in with a melting point of 130 to 132 °C.

Take `CN(C)C(=O)c1cc(N2CCN([C@H]3CC[C@@H](c4cn(C)c5ccc(C#N)cc54)CC3)CC2)c2ncccc2c1`: the melting point lay in the range of 163 to 165 °C.

Turning to `Cc1ccc(S(=O)(=O)O[C@@H]2C[C@@H](CCl)N(S(=O)(=O)c3ccc(C)cc3)C2)cc1`, the melting point is 145 to 146 °C.

`COC(=O)c1ccc2[nH]c(=O)n(CCCCN3CC=C(c4ccccc4)CC3)c(=O)c2c1` gave a melting point of 138 °C.

Consider `CNC(=O)N(CCN)c1nc(-c2ccc(F)cc2C)c2ccc(=O)n(-c3c(F)cccc3F)c2n1`, for which the melting point was 124 to 133 °C.

The compound `Cc1cc(C)n(C)c1C(=O)c1ccc(Cl)cc1` gave a melting point of 94 to 98 °C.

In the case of `COc1ccc2c(c1O)NC(=O)C1CCCN1C2=O` (stereo not given), the melting point lay within 275 to 278 °C.

As for `c1cncc(C2CCc3ccccc3O2)c1` (stereo not given), the melting point was in the range of 59 to 60 °C.

On to `CCc1nc2c(cnn2CC)c(NC2CCOCC2)c1CNC(=O)c1cc(C)cc(C(=O)NCc2ccc(OC)c(-c3cccc(CN4CCNC(C)C4)c3)c2)c1` (stereo not given), for which the melting point was in the range of 121 to 123 °C.

`N#CCCc1cccc(O)c1` yielded a melting point of 64 to 66 °C.

On to `O=C(O)COc1cccnc1Br`, for which the melting point fell in the range of 172 to 174 °C.

In the case of `NS(=O)(=O)c1ccc(-c2cc3cccccc-3c2-c2ccccc2)cc1`, the melting point lay in the range of 169 to 170 °C.

On to `COc1c(C)cc(N=C=S)cc1C(=S)N(C)C`, for which the melting point was in the range of 74 to 75 °C.

The compound `O=C(O)c1cc2cc(Cl)ccc2nc1N[C@@H](CC1CCCCC1)C(=O)O` registered a melting point of 160 to 168 °C.

Turning to `CC(N)CC(=O)Nc1ccc(Nc2ccccc2)cc1` (stereo not given), the melting point lay in the range of 130 to 132 °C.

Compound `NS(=O)(=O)c1cc2ccc(OCC3CO3)cc2s1` (stereo not given) had a melting point of 148 to 149 °C.

Regarding `C=CCCN1C(C)=C(C(=O)OC)C(c2ccccc2)C(C(=O)OC)=C1C`, the melting point was in the range of 108 to 110 °C.

Turning to `Cc1cc(C2=NOC(c3cc(Cl)cc(Cl)c3)(C(F)(F)F)C2)ccc1F` (stereo not given), the melting point is 72 to 74 °C.

Take `CCCCCCCCCCOc1ccc(C(=O)C=O)cc1`: the melting point fell in the range of 81 to 83 °C.

`CCC(C(=O)c1ccc(NS(C)(=O)=O)cc1)c1ccccc1` (stereo not given) registered a melting point of 143 to 147 °C.

Consider `CC(C)(C)OC(=O)N1CCC(c2ccc(N3C[C@H](CNC(=O)C(Cl)Cl)OC3=O)cc2F)CC1`, for which the melting point lay within 168 to 170 °C.

As for `CCOCc1nc(N)c(N)c(=O)[nH]1`, the melting point is 173 to 175 °C.

As for `CCOc1ccccc1-c1oc2c(C(=O)OCCO)cccc2c(=O)c1C`, the melting point was in the range of 143 to 144 °C.

In turn, `CCCC1c2c(ccc(C(C)=O)c2O)OC1COc1ccc(CC(=O)O)cc1` (stereo not given) had a melting point of 104 to 106 °C.

The compound `COC(=O)c1c(S(=O)C(C)C)c2cc(OC)ccc2n1C` (stereo not given) came in with a melting point of 130 to 134 °C.

Take `CC(=O)N(C)C(=O)Oc1cccc2c1OCO2`: the melting point was in the range of 48 to 50 °C.

For `CCNC(=O)C1CCN(c2cc(-c3ccc(Cl)cc3)nc3ccccc23)CC1`, the melting point lay within 231 to 233 °C.

As for `CCOC(=O)c1ccccc1CS(=O)(=O)Cl`, the melting point lay in the range of 63 to 64 °C.

In the case of `CCOC(=O)N1C(NC(C)C)=NS(=O)(=O)c2c1cnn2C`, the melting point lay within 141 to 145 °C.

In the case of `CC(=Cc1ccc2c(c1)Sc1cc(C=C(C)c3ccccc3)ccc1N2C)c1ccccc1`, the melting point is 189 to 191 °C.

`CCCCCCCCCCCCCCCCCCN(CCCCCCCCCCCCCCCCCC)c1ccccc1`: the melting point lay within 110 to 111 °C.

With `CSc1nc2ccc(C)cc2c2nn(-c3ccccc3)c(=O)n12`, the melting point is over 400 °C.

Consider `O=C1c2ccccc2C(=O)c2c(NC(=O)C3CC3)ccc(NC(=O)C3CC3)c21`, for which the melting point is over 200 °C.

On to `C=CCc1cc(Cl)c2ccccc2c1O`, for which the melting point lay within 55 to 57 °C.

As for `CCCCCCCCCCCCOc1ccc(C(=O)c2ccc(Cl)cc2)c(O)c1`, the melting point lay in the range of 61 to 63 °C.

Compound `CC12CCC3c4cc(C=O)c(OCc5ccccc5)cc4CCC3C1CCC2OCc1ccccc1` (stereo not given) registered a melting point of 145 to 147 °C.

Compound `ClCc1nnnn1C1CCCCC1` registered a melting point of 101 to 104 °C.

For the compound `Nc1c(-c2ccc(Cl)cc2)nnn1-c1ccc(C(F)(F)F)cc1F`, the melting point stood at 170 °C.

In turn, `Cc1c(NC(=O)c2ccc(C(C)(C)C)cc2)nc2ccc(-n3ccnc3)nn12` came in with a melting point of 302 to 303 °C.

`CSc1nnc(-c2ccc3occ(-c4cc(F)ccc4F)c3c2)o1` came in with a melting point of 158 to 159 °C.

In turn, `N#Cc1cc(F)ccc1O` had a melting point of 121 to 122 °C.

A word on the melting point: it is the temperature, or range, at which the solid turns liquid.
